Data reported in PMC10167348, “Structural mechanisms of TRPM7 activation and inhibition” (Nature Communications, 2023).

Target: T1, purified TRPM7 reconstituted in lipid bilayers (Mus musculus, UniProt Q923J1)
T1 construct: truncated C-terminally (the corresponding protein residues 1–1280); GFP (N); thrombin cleavage site (LVPRG) (N); made in house; host or cells: HEK 293S GnTI- cells (BacMam baculovirus made in Sf9)
T1 sequence (Q923J1 1-1280): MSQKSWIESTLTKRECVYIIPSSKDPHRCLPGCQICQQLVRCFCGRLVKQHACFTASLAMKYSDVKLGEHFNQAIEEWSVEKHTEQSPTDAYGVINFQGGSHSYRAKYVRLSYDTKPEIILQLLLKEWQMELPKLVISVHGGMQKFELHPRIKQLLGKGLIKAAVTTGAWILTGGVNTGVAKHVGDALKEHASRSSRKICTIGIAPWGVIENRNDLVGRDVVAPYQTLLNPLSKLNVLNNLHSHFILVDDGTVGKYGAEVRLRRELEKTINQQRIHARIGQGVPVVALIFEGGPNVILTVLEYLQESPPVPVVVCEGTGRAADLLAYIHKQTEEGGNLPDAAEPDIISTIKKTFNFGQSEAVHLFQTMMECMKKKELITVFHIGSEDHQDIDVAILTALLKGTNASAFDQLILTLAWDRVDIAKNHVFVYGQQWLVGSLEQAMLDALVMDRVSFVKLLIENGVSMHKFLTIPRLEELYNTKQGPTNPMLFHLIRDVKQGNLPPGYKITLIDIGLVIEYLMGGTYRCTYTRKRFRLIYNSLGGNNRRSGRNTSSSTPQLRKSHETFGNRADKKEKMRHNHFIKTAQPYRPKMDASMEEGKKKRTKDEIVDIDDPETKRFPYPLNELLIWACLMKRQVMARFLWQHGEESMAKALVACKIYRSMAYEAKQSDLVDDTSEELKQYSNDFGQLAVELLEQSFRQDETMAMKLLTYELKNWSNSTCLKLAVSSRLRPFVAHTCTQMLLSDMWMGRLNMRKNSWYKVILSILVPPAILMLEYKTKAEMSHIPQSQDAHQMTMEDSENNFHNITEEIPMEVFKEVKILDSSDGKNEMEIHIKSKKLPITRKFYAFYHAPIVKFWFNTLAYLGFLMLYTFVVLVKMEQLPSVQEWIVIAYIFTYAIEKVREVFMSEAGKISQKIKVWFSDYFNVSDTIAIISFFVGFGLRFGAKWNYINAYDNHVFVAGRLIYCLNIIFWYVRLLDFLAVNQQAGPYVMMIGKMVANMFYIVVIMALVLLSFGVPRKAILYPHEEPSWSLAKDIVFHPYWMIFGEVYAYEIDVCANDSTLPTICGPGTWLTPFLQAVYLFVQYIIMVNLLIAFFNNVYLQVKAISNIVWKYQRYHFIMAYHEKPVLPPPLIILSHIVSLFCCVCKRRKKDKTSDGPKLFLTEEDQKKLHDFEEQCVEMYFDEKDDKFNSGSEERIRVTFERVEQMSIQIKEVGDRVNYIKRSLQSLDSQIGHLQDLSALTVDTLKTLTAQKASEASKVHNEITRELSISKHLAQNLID
Assay: Planar lipid bilayer single-channel recordings
Assay type: biochemical
Conditions: 2.5 μM NTB, membrane potential –100 mV, n = 3; Po without agonist 0.02 ± 0.01
Procedure: Planar lipid bilayers measurements were performed as described previously. Briefly, planar lipid bilayers were formed from a 30 mM solution of synthetic lipid mix POPC:POPE:POPG at a 3:1:1 ratio (Anatrace, P516:P416:P616) in n-decane (Sigma-Aldrich). The solution was used to paint a bilayer in an aperture of ∼150 µm diameter in a Meca chip (Nanion). Each cavity in the chip contained an individual integrated Ag/AgCl-microelectrode. The bathing solution contained 150 mM KCl, 0.02 mM MgCl2, 1 µM CaCl2 and 20 mM HEPES (pH 7.2). All the reagents (Sigma-Aldrich) were ultrapure (>99%). The bilayer capacitance was in the range of 5–10 pF.
The purified protein (10 ng/ml) was added to the bilayer-forming lipid mix (1 volume of protein to 1 volume of the lipid mix) and incubated for 30 min at 30 °C. […] Only after the incubated protein-lipid mix was added by painting, the unitary currents were recorded using an Orbit mini device (Nanion) controlled by the pCLAMP 10.2 software (Molecular Devices). Data were low-pass filtered at […] and digitized at 1.22 kHz. Single-channel conductance events, all-points histograms, and other parameters were identified and analyzed using the Clampfit 10.3 software (Molecular Devices). Only recordings with one channel incorporated into the lipid bilayer were subjected to single-channel analysis. […]

Oc1ccc2c3c1O[C@H]1c4oc5ccccc5c4C[C@@]4(O)[C@@H](C2)N(CC2CC2)CC[C@]314 [Naltriben, naltriben]
open probability, Po: 0.44 ± 0.25
